Source: ChEMBL document CHEMBL5137095, “N-Benzyl Benzamide Derivatives as Selective Sub-Nanomolar Butyrylcholinesterase Inhibitors for Possible Treatment in Advanced Alzheimer's Disease” (J Med Chem, 2022)
Calls of active or inactive are those of the source. The rule behind the calls is not given here.

Tests used:
SH-SY5Y [1] = experiment: Neuroprotective activity against amyloid beta (1 to 42)-induced cell damage in human SH-SY5Y cells assessed as inhibition of ROS level pretreated for 2 hrs followed by amyloid beta (1 to 42) addition and measured after 24 hrs by DCFH-DA staining based fluorescence microscopy analysis; assay type: functional; details: time 26.0 hrs
Mus musculus [2] = experiment: Cognitive enhancing effect in amyloid beta (1 to 42)-induced ICR mouse model assessed as reduction in escape latency at 0.5 mg/kg, icv measured on day 14 by Morris Water maze method; assay type: functional, organism-based; details: time 14.0 day
Mus musculus [3] = experiment: Cognitive enhancing effect in amyloid beta (1 to 42)-induced ICR mouse model assessed as reduction in amyloid beta (1 to 42) peptide level in brain administered via icv measured on day 14 by ELISA; assay type: functional, organism-based; details: dose 0.5-10 mg/kg, time 14.0 day, DDE = dose-dependent effect
Mus musculus [4] = experiment: Cognitive enhancing effect in amyloid beta (1 to 42)-induced ICR mouse model assessed as increase in ACh level in brain at 0.5 to 10, icv measured on day 14 by ELISA; assay type: functional, organism-based; details: dose 0.5-10 mg/kg, time 14.0 day
Mus musculus [5] = experiment: Cognitive enhancing effect in amyloid beta (1 to 42)-induced ICR mouse model assessed as decrease in IFN-gamma level in brain at 0.5 to 10, icv measured on day 14 by ELISA; assay type: functional, organism-based; details: dose 0.5-10 mg/kg, time 14.0 day
Mus musculus [6] = experiment: Cognitive enhancing effect in amyloid beta (1 to 42)-induced ICR mouse model assessed as decrease in TNF-alpha level in brain at 0.5 to 10, icv measured on day 14 by ELISA; assay type: functional, organism-based; details: dose 0.5-10 mg/kg, time 14.0 day
Mus musculus [7] = experiment: Cognitive enhancing effect in amyloid beta (1 to 42)-induced ICR mouse model assessed as reduction in latency at 1 mg/kg, icv measured on day 14 by Morris Water maze method; assay type: functional, organism-based
Mus musculus [8] = experiment: Cognitive enhancing effect in amyloid beta (1 to 42)-induced ICR mouse model assessed as reduction in latency at 2.5 mg/kg, icv measured on day 14 by Morris Water maze method; assay type: functional, organism-based
SH-SY5Y [9] = experiment: Neuroprotective activity against GA-induced cell damage in human SH-SY5Y cells pretreated for 2 hrs followed by GA addition and measured after 24 hrs by MTT assay; assay type: functional, cell-based; details: dose 0.1-5 µM, time 26.0 hrs, DDE = dose-dependent effect
PC-12 [10] = experiment: Neuroprotective activity against H2O2-induced cell damage in rat PC-12 cells at 5 uM pretreated for 2 hrs followed by H2O2 addition and measured after 24 hrs by MTT assay; assay type: functional, cell-based
Mus musculus [11] = experiment: Cognitive enhancing effect in amyloid beta (1 to 42)-induced ICR mouse model assessed as reduction in amyloid beta (1 to 42) peptide level in brain at 0.5 to 10 mg/kg, icv measured on day 14 by ELISA; assay type: functional, organism-based; details: dose 0.5-10 mg/kg
PC-12 [12] = experiment: Neuroprotective activity against H2O2-induced cell damage in rat PC-12 cells pretreated for 2 hrs followed by H2O2 addition and measured after 24 hrs by MTT assay; assay type: functional, cell-based; details: dose 2.5-10 µM, time 26.0 hrs, DDE = dose-dependent effect
SH-SY5Y [13] = experiment: Neuroprotective activity against amyloid beta (1 to 42)-induced cell damage in human SH-SY5Y cells pretreated for 2 hrs followed by amyloid beta (1 to 42) addition and measured after 24 hrs by MTT assay; assay type: functional, cell-based; details: dose 0.5-2 µM, time 26.0 hrs, DDE = dose-dependent effect

With `CCN(CC)Cc1ccccc1CNC(=O)c1cc(C)cc(NC(=O)c2ccc(F)cc2)c1` the Activity (SH-SY5Y [1]) was “Active”, the Activity (Mus musculus [2]) was “Active” and the Activity (Mus musculus [3]) was “Dde”. The Activity (Mus musculus [4]) was “Active”, the Activity (Mus musculus [5]) was “Active” and the Activity (Mus musculus [6]) was “Active”.
For `CCN(C)C(=O)Oc1cccc([C@H](C)N(C)C)c1`, the Activity (Mus musculus [7]) was “Active” and the Activity (Mus musculus [8]) was “Active”.
With `CCN(CC)Cc1ccccc1CNC(=O)c1cc(Br)cc(NC(=O)c2ccc(F)cc2)c1` the Activity (SH-SY5Y [9]) was “Dde”.
With `CCN(CC)Cc1ccccc1CNC(=O)c1cccc(NC(=O)c2ccc(F)cc2)c1C` the Activity (SH-SY5Y [1]) was “Active”.
In the case of `CCCN(CCC)Cc1ccccc1CNC(=O)c1cccc(NC(=O)c2cccs2)c1`, the Activity (PC-12 [10]) is reported as “Active”.
For `COc1ccc2c3c1O[C@H]1C[C@@H](O)C=C[C@@]31CCN(C)C2`, the Activity (Mus musculus [7]) was “Active” and the Activity (Mus musculus [8]) was “Active”.
With `CCN(CC)Cc1ccccc1CNC(=O)c1cccc(NC(=O)c2ccc(F)cc2)c1` the Activity (Mus musculus [11]) was “Active”, the Activity (PC-12 [10]) was “Active” and the Activity (PC-12 [12]) was “Dde”. For the same molecule, the Activity (SH-SY5Y [13]) was “Dde”, the Activity (SH-SY5Y [1]) was “Active” and the Activity (Mus musculus [2]) was “Active”. The Activity (Mus musculus [4]) was “Active”, the Activity (Mus musculus [5]) was “Active” and the Activity (Mus musculus [6]) was “Active”.
`CN(C)Cc1ccccc1CNC(=O)c1cccc(NC(=O)c2cccs2)c1` was tested, and the Activity (PC-12 [10]) was “Active”.
